Data published in US11498930B2 (BLUERAY THERAPEUTICS (SHANGHAI) CO., LTD., priority 2018, dated 2022).
Like-named read-outs stand apart in the source and are kept apart here.

Tests used:
[1] = test system: MOLM-13 cells; assay: MOLM-13 cell proliferation experiment; format: cell-based; details: Homo sapiens
Experimental: After 3 days, 5 µL of CellTiter-Glo reagent (Promega, ZG7572) was added to each well, and the plates were kept at room temperature in the dark for 10 minutes. The […] was detected by Spectra max i3 (Molecular Devices). The relative growth rate of the treated cells was compared with that of DMSO control.

[2] = test system: phosphorylation level of intracellular protein kinase (ERK) in MOLM13 cells; assay: Phosphorylated protein kinase (p-ERK) cell experiment (AlphaLISA); format: cell-based; details: Homo sapiens, MOLM-13, MOLM13 cells
Experimental: The inhibitory activities of the compounds on the phosphorylation level of intracellular protein kinase (ERK) were determined by AlphaLISA method.
Firstly, the cells were treated with the compounds. The compounds to be tested were subjected to 3-fold dilution with 100% DMSO, and a total of 9 different concentration gradients were set. MOLM13 cells were then seeded into 96-well plates at a density of 30,000 cells per well in a volume of 100 µL per well. […] of DMSO or the test compounds with different concentrations was then transferred into each well, setting two duplicates for each concentration, and the final concentration of DMSO was controlled at 0.5%.
Secondly, the cells were lysed. After 2 hours of cell treatment, the medium was removed, and the cells were washed 3 times with phosphate buffered saline. 50 µL of freshly prepared lysis buffer was added to each well, and the plates were shaken and kept at room temperature for 10 minutes.
Thirdly, the phosphorylated extracellular signal-regulated kinase (p-ERK) was detected by AlphaLISA@ SureFire® Ultra™ p-ERK 1/2 (Thr202/Tyr204) kit (Perkin Elmer, ALSU-PERK-A10K). 10 µL of the above lysate was transferred to a 384-well plate (Perkin Elmer, 6005350), and the phosphorylation level of the extracellular signal-regulated kinase of the sample was detected according to the product instructions. The signal was read using AlphaScreen detector on Spectra max i3 (Molecular Devices). The percentage of inhibition (%) was calculated by the following formula: Inhibition percentage(%)=(1−p-ERK signal of compound-treated cells/p-ERK signal of DMSO-treated cells)*100

[3] = biological target: SHP2^E76A protein (Homo sapiens (Human), UniProt Q06124, E76A); assay: SHP2 enzyme activity inhibition experiment; format: biochemical
Method in brief: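 Compounds tested at 10 concentrations in 3-fold serial dilution. IC50 from a four-parameter Hill-slope nonlinear fit of enzyme activity versus concentration.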

[4] = MOLM-13, 72 h, MOLM-13 cell proliferation, 3 days, Tables 3.1 and 3.2, read-out: IC50
[5] = MOLM-13, read-out: MOLM-13 cell proliferation IC50
[6] = p-ERK, 2 hours of cell treatment, Tables 2.1 and 2.2, read-out: IC50
[7] = SHP2 enzyme activity, Tables 1.1 and 1.2, read-out: IC50
[8] = Table 4, read-out: SHP2 enzyme activity IC50

Chain of SHP2^E76A protein (Q06124 whole entry E76A): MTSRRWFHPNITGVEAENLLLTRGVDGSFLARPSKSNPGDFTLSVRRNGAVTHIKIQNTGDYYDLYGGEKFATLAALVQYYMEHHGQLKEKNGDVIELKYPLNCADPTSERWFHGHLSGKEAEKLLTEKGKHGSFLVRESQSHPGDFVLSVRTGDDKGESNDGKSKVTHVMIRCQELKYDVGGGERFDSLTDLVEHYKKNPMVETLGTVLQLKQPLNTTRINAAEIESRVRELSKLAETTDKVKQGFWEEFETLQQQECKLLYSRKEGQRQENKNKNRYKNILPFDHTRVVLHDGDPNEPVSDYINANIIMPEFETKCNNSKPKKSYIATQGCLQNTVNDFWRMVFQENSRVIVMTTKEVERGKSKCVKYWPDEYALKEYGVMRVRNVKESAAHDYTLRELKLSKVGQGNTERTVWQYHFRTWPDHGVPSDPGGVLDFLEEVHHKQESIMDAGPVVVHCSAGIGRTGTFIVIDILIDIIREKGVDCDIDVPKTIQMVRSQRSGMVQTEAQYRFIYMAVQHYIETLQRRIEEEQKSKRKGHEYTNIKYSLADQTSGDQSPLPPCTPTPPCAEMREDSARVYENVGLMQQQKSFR

Structure (SMILES) | IC50 [1, 4] [nM] | IC50 [1, 5] [nM] | IC50 ([2]; Table 4, read-out: p-ERK IC50) [nM] | IC50 [2, 6] [nM] | IC50 [3, 7] [nM] | IC50 [3, 8] [nM]
C[C@@H]1OCC2(CCN(c3ncc(Sc4ccnc(Cl)c4Cl)c4nccn34)CC2)[C@@H]1N [(3S,4S)-8-(8-((2,3-dichloropyridin-4-yl)thio)imidazo[1,2-c]pyrimidin-5-yl)-3-methyl-2-oxa-8-azaspiro[4.5]decan-4-amine] | < 100 | 38 | 35 | < 100 | < 100 | 5
N[C@@H]1CCCC12CCN(c1ncc(Sc3ccnc(F)c3Cl)c3nccn13)CC2 [(R)-8-(8-((3-chloro-2-fluoropyridin-4-yl)thio)imidazo[1,2-c]pyrimidin-5-yl)-8-azaspiro[4.5]decan-1-amine] | 100 to 1000 |  |  | 100 to 1000 | < 100 | 
N[C@@H]1CC(F)(F)CC12CCN(c1ncc(Sc3cccc(Cl)c3Cl)c3nccn13)CC2 [(R)-8-(8-((2,3-dichlorophenyl)thio)imidazo[1,2-c]pyrimidin-5-yl)-3,3-difluoro-8-azaspiro[4.5]decan-1-amine] | 100 to 1000 |  |  | 100 to 1000 | < 100 | 
C=CC(=O)Nc1cccc(Sc2cnc(N3CCC4(CCC[C@H]4N)CC3)n3ccnc23)c1Cl [(R)-N-(3-((5-(1-amino-8-azaspiro[4.5]decan-8-yl)imidazo[1,2-c]pyrimidin-8-yl)thio)-2-chlorophenyl)acrylamide] | 100 to 1000 |  |  | 100 to 1000 | 100 to 1000 | 
N[C@@H]1COCC12CCN(c1ncc(Sc3ccnc(Cl)c3Cl)c3nccn13)CC2 [(S)-8-(8-((2,3-dichloropyridin-4-yl)thio)imidazo[1,2-c]pyrimidin-5-yl)-2-oxa-8-azaspiro[4.5]decan-4-amine] | 100 to 1000 |  |  | 100 to 1000 | < 100 | 
CC1(CN)CCN(c2ncc(Sc3cccc(Cl)c3Cl)c3nncn23)CC1 [(1-(8-((2,3-dichlorophenyl)thio)-[1,2,4]triazolo[4,3-c]pyrimidin-5-yl)-4-methylpiperidin-4-yl)methanamine] | 1000 to 10000 | 1360 | 170 | 100 to 1000 | < 100 | 40
N[C@@H]1CCCC12CCN(c1ncc(Sc3cccnc3C(F)(F)F)c3nncn13)CC2 [(R)-8-(8-((2-(trifluoromethyl)pyridin-3-yl)thio)-[1,2,4]triazolo[4,3-c]pyrimidin-5-yl)-8-azaspiro[4.5]decan-1-amine] | 100 to 1000 |  |  | 1000 to 10000 | 100 to 1000 | 
N[C@@H]1CCCC12CCN(c1ncc(Sc3ccnc(Cl)c3Cl)c3nccn13)CC2 [(R)-8-(8-((2,3-dichloropyridin-4-yl)thio)imidazo[1,2-c]pyrimidin-5-yl)-8-azaspiro[4.5]decan-1-amine] | < 100 | 42 | 159 | 100 to 1000 | < 100 | 57
Cc1nc(N)cc(Sc2cnc(N3CCC4(CC3)CO[C@@H](C)[C@H]4N)n3ccnc23)c1Cl [(3S,4S)-8-(8-((6-amino-3-chloro-2-methyl-pyridin-4-yl)thio)imidazo[1,2-c]pyrimidin-5-yl)-3-methyl-2-oxa-8-azaspiro[4.5]decan-4-amine] | < 100 | 42 | 43 | < 100 | < 100 | 16
Cc1nc(N)cc(Sc2cnc(N3CCC4(CC3)CC(F)(F)C[C@H]4N)n3ccnc23)c1Cl [(R)-8-(8-((6-amino-3-chloro-2-methyl-pyridin-4-yl)thio)imidazo[1,2-c]pyrimidin-5-yl)-3,3-difluoro-8-azaspiro[4.5]decan-1-amine] |  | 150 | 97 | < 100 | < 100 | 26
C[C@@H]1OCC2(CCN(c3ncc(Sc4ccnc(N)c4Cl)c4nncn34)CC2)[C@@H]1N | 100 to 1000 | 102 | 335 |  | < 100 | 13
Nc1cc(Sc2cnc(N3CCC4(CCC[C@H]4N)CC3)n3ccnc23)c(Cl)c(Cl)n1 [(R)-8-(8-((6-amino-2,3-dichloropyridin-4-yl)thio)imidazo[1,2-c]pyrimidin-5-yl)-8-azaspiro[4.5]decan-1-amine] | < 100 | 16 | 9 | < 100 | < 100 | 12
N[C@@H]1CCCC12CCN(c1ncc(Sc3ccnc(Cl)c3Cl)c3nncn13)CC2 [(R)-8-(8-((2,3-dichloropyridin-4-yl)thio)-[1,2,4]triazolo[4,3-c]pyrimidin-5-yl)-8-azaspiro[4.5]decan-1-amine] | 100 to 1000 |  |  | 1000 to 10000 | < 100 | 
CC1C[C@@H](N)C2(CCN(c3ncc(Sc4cccc(Cl)c4Cl)c4nccn34)CC2)C1 (stereo partly drawn) [(1R)-8-(8-((2,3-dichlorophenyl)thio)imidazo[1,2-c]pyrimidin-5-yl)-3-methyl-8-azaspiro[4.5]decan-1-amine] | 100 to 1000 | 140 | 53 | < 100 | < 100 | 11
Nc1nccc(Sc2cnc(N3CCC4(CCC[C@H]4N)CC3)n3ncnc23)c1Cl [(R)-8-(8-((2-amino-3-chloropyridin-4-yl)thio)-[1,2,4]triazolo[1,5-c]pyrimidin-5-yl)-8-azaspiro[4.5]decan-1-amine] | 100 to 1000 |  |  | 1000 to 10000 | 100 to 1000 | 
N[C@@H]1COCC12CCN(c1ncc(Sc3cccc(Cl)c3Cl)c3nncn13)CC2 [(S)-8-(8-((2,3-dichlorophenyl)thio)-[1,2,4]triazolo[4,3-c]pyrimidin-5-yl)-2-oxa-8-azaspiro[4.5]decan-4-amine] | 100 to 1000 | 892 | 168 | 100 to 1000 | < 100 | 20
N[C@@H]1CCCC12CCN(c1ncc(Sc3ccnc4ccccc34)c3nccn13)CC2 [(R)-8-(8-(quinolin-4-ylthio)imidazo[1,2-c]pyrimidin-5-yl)-8-azaspiro[4.5]decan-1-amine] | < 100 | 99 | 31 | 100 to 1000 | < 100 | 20
Nc1cccc(Sc2cnc(N3CCC4(CCC[C@H]4N)CC3)n3cnnc23)c1Cl [(R)-8-(8-((3-amino-2-chlorophenyl)thio)-[1,2,4]triazolo[4,3-c]pyrimidin-5-yl)-8-azaspiro[4.5]decan-1-amine] | 100 to 1000 | 389 | 245 | 100 to 1000 | < 100 | 25
C[C@@H]1OCC2(CCN(c3ncc(Sc4ccnc(N)c4Cl)c4nccn34)CC2)[C@@H]1N [(3S,4S)-8-(8-((2-amino-3-chloropyridin-4-yl)thio)imidazo[1,2-c]pyrimidin-5-yl)-3-methyl-2-oxa-8-azaspiro[4.5]decan-4-amine] | < 100 | 76 | 150 | 100 to 1000 | < 100 | 20
Nc1nccc(Sc2cnc(N3CCC4(CC3)COC[C@H]4N)n3ccnc23)c1Cl [(S)-8-(8-((2-amino-3-chloropyridin-4-yl)thio)imidazo[1,2-c]pyrimidin-5-yl)-2-oxa-8-azaspiro[4.5]decan-4-amine] | 100 to 1000 |  |  | 100 to 1000 | < 100 | 
C[C@@H]1OCC2(CCN(c3ncc(Sc4cccc(Cl)c4Cl)c4nncn34)CC2)[C@@H]1N | 100 to 1000 |  |  | 100 to 1000 | < 100 | 
